How the values were obtained:
[1] = biological target: purified recombinant human GAC (GLS1) (Homo sapiens (Human), UniProt O94925); experiment: GLS1 Enzymatic Activity Assay (dual-coupled enzymatic assay, resorufin/Amplex UltraRed readout); assay type: biochemical;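 further: glutamate from GAC coupled via glutamate oxidase and peroxidase to resorufin, read as fluorescence (ex 530, em 590 nm) kinetically or at 20 min, four-parameter logistic IC50 fit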
A549 cells = experiment: Proliferation Assay (A549 viability, Cell Titer Fluor, 72 hours); assay type: cell-based; conditions: Homo sapiens, A549, 72 h
Outline: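 Cell Titer Fluor fluorescence after 72 h compound treatment (0.5% DMSO, 37 °C, 5% CO2) of A549 cells plated 24 h earlier at 1000/well. Four-parameter logistic fitting gave IC50.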

Sequence of purified recombinant human GAC (GLS1) (O94925 other isoform, or with tags, fused parts or gaps): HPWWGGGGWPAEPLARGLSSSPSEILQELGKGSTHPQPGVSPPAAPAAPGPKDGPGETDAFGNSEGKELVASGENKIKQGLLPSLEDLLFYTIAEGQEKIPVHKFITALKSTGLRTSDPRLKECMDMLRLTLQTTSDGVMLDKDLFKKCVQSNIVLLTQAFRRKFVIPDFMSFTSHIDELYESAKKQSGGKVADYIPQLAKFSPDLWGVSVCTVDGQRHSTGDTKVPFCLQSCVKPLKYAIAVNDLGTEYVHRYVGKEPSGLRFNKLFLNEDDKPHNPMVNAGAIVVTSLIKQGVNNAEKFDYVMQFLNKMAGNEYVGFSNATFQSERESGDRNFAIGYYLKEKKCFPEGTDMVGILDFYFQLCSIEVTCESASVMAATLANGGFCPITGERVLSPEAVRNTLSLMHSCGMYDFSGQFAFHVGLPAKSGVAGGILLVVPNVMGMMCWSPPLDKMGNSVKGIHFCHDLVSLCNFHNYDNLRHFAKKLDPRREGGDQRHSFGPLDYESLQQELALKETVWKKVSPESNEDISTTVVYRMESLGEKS

SMILES | IC50 [1] | EC50 (A549 cells)
O=C(Cc1ccccc1)Nc1ccc(CCCCc2nnc(C(=O)NCCc3ccccc3)s2)nn1 [Example 26, 5-{4-[6-(2-phenylacetamido)pyridazin-3-yl]butyl}-N-(2-phenylethyl)-1,3,4-thiadiazole-2-carboxamide] | < 100 nM | < 100 nM
COc1cccc(CNC(=O)c2cn(CCC(F)Cn3cc(C(=O)NCc4cc(C(F)(F)F)ccn4)nn3)nn2)c1 (centres unmarked) [Example 468, 1-[2-fluoro-4-(4-{[(3-methoxyphenyl)methyl]carbamoyl}-1H-1,2,3-triazol-1-yl)butyl]-N-{[4-(trifluoromethyl)pyridin-2-yl]methyl}-1H-1,2,3-triazole-4-carboxamide] | < 100 nM | < 100 nM
O=C(Cc1cccc(OC(F)(F)F)c1)Nc1cn(CCC(F)Cn2cc(C(=O)NCc3ncccc3F)nn2)nn1 (centres unmarked) [Example 406, 1-[2-fluoro-4-(4-{2-[3-(trifluoromethoxy)phenyl]acetamido}-1H-1,2,3-triazol-1-yl)butyl]-N-[(3-fluoropyridin-2-yl)methyl]-1H-1,2,3-triazole-4-carboxamide] | < 100 nM | < 100 nM
O=C(NCc1cc(OC(F)(F)F)ccc1F)c1cn(CC(F)CCc2nnc(C(=O)NCc3cc(C(F)(F)F)ccn3)s2)nn1 (centres unmarked) [Example 451, 5-{3-fluoro-4-[4-({[2-fluoro-5-(trifluoromethoxy)phenyl]methyl}carbamoyl)-1H-1,2,3-triazol-1-yl]butyl}-N-{[4-(trifluoromethyl)pyridin-2-yl]methyl}-1,3,4-thiadiazole-2-carboxamide] | < 100 nM | < 100 nM
O=C(NCc1ccccn1)c1cn(CCCCc2nnc(C(=O)NCc3cccc(OC(F)(F)F)c3)s2)nn1 [Example 65, 5-(4-{4-[(pyridin-2-ylmethyl)carbamoyl]-1H-1,2,3-triazol-1-yl}butyl)-N-{[3-(trifluoromethoxy)phenyl]methyl}-1,3,4-thiadiazole-2-carboxamide] | < 100 nM | 100 to 500 nM
CNC(=O)c1cn(CC(F)CCc2ccc(NC(=O)Cc3ccccc3)nn2)nn1 (centres unmarked) [Example 244, 1-(2-fluoro-4-(6-(2-phenylacetamido)pyridazin-3-yl)butyl)-N-methyl-1H-1,2,3-triazole-4-carboxamide] | < 100 nM | < 100 nM
O=C(Cc1cccc(OC(F)(F)F)c1)Nc1cn(CCC(F)Cn2cc(C(=O)NCc3ccccn3)nn2)nn1 (centres unmarked) [Example 403, 1-[2-fluoro-4-(4-{2-[3-(trifluoromethoxy)phenyl]acetamido}-1H-1,2,3-triazol-1-yl)butyl]-N-(pyridin-2-ylmethyl)-1H-1,2,3-triazole-4-carboxamide] | < 100 nM | < 100 nM
CNC(=O)c1cn(CCCCc2ccc(NC(=O)Cc3cccc(OCCOC)c3)nn2)nn1 [Example 173, 1-[4-(6-{2-[3-(2-methoxyethoxy)phenyl]acetamido}pyridazin-3-yl)butyl]-N-methyl-1H-1,2,3-triazole-4-carboxamide] | 100 to 500 nM | 100 to 500 nM
O=C(Cc1cccc(OC(F)(F)F)c1)Nc1cn(CC(F)CCn2cc(C(=O)NCc3cccc(OC(F)(F)F)c3)nn2)nn1 (centres unmarked) [Example 339, 1-[3-fluoro-4-(4-{2-[3-(trifluoromethoxy)phenyl]acetamido}-1H-1,2,3-triazol-1-yl)butyl]-N-{[3-(trifluoromethoxy)phenyl]methyl}-1H-1,2,3-triazole-4-carboxamide] | < 100 nM | < 100 nM
COc1cccc(CNC(=O)c2cn(CC(F)CCc3nnc(NC(=O)Cc4cc(OC(F)(F)F)ccc4F)s3)nn2)n1 (centres unmarked) [Example 206, 1-(2-fluoro-4-(5-(2-(2-fluoro-5-(trifluoromethoxy)phenyl)acetamido)-1,3,4-thiadiazol-2-yl)butyl)-N-((6-methoxypyridin-2-yl)methyl)-1H-1,2,3-triazole-4-carboxamide] | < 100 nM | < 100 nM
O=C(CN1CCC(F)(F)CC1)Nc1cn(CCCCn2cc(C(=O)NCc3cc(Cl)ccc3F)nn2)nn1 [Example 359, N-[(5-chloro-2-fluorophenyl)methyl]-1-(4-{4-[2-(4,4-difluoropiperidin-1-yl)acetamido]-1H-1,2,3-triazol-1-yl}butyl)-1H-1,2,3-triazole-4-carboxamide] | 100 to 500 nM | 100 to 500 nM
O=C(CC1CC1)Nc1cn(CCCCn2cc(C(=O)NCc3cccc(OC(F)(F)F)c3)nn2)nn1 [Example 276, 1-{4-[4-(2-cyclopropylacetamido)-1H-1,2,3-triazol-1-yl]butyl}-N-{[3-(trifluoromethoxy)phenyl]methyl}-1H-1,2,3-triazole-4-carboxamide] | 100 to 500 nM | 100 to 500 nM
O=C(NCc1cc(C(F)(F)F)ccn1)c1cn(CCC(F)Cn2cc(C(=O)NCc3cc(OC(F)(F)F)ccc3F)nn2)nn1 (centres unmarked) [Example 432, 1-{2-fluoro-4-[4-({[4-(trifluoromethyl)pyridin-2-yl]methyl}carbamoyl)-1H-1,2,3-triazol-1-yl]butyl}-N-{[-fluoro-5-(trifluoromethoxy)phenyl]methyl}-1H-1,2,3-triazole-4-carboxamide] | < 100 nM | < 100 nM
O=C(NCC1CCCOC1)c1cn(CCC(F)Cn2cc(C(=O)NCc3cc(C(F)(F)F)ccn3)nn2)nn1 (centres unmarked) [Example 473, 1-(2-fluoro-4-{4-[(oxan-3-ylmethyl)carbamoyl]-1H-1,2,3-triazol-1-yl}butyl)-N-{[4-(trifluoromethyl)pyridin-2-yl]methyl}-1H-1,2,3-triazole-4-carboxamide] | 100 to 500 nM | 100 to 500 nM
O=C(Cc1cccc(OC(F)(F)F)c1)Nc1nnc(CCC(F)Cn2cc(C(=O)NCc3ccc(C(F)(F)F)cn3)nn2)s1 (centres unmarked) [Example 493, 1-[2-fluoro-4-(5-{2-[3-(trifluoromethoxy)phenyl]acetamido}-1,3,4-thiadiazol-2-yl)butyl]-N-{[5-(trifluoromethyl)pyridin-2-yl]methyl}-1H-1,2,3-triazole-4-carboxamide] | < 100 nM | < 100 nM
O=C(Cc1cccc(OC(F)(F)F)c1)Nc1nnc(CCCCn2cc(C(=O)NCC3CC3)nn2)s1 [Example 11, N-(cyclopropylmethyl)-1-[4-(5-{2-[3-(trifluoromethoxy)phenyl]acetamido}-1,3,4-thiadiazol-2-yl)butyl]-1H-1,2,3-triazole-4-carboxamide] | < 100 nM | 100 to 500 nM
O=C(Cc1ccccn1)Nc1cn(CC(F)CCn2cc(C(=O)NCc3cc(OC(F)(F)F)ccc3F)nn2)nn1 (centres unmarked) [Example 363, 1-(3-fluoro-4-{4-[2-(pyridin-2-yl)acetamido]-1H-1,2,3-triazol-1-yl}butyl)-N-{[2-fluoro-5-(trifluoromethoxy)phenyl]methyl}-1H-1,2,3-triazole-4-carboxamide] | < 100 nM | < 100 nM
Cn1cnc(CC(=O)Nc2nnc(CCC(F)Cn3cc(C(=O)NCc4cc(OC(F)(F)F)ccc4F)nn3)s2)c1 (centres unmarked) [Example 576, 1-(2-fluoro-4-(5-(2-(1-methyl-1H-imidazol-4-yl)acetamido)-1,3,4-thiadiazol-2-yl)butyl)-N-(2-fluoro-5-(trifluoromethoxy)benzyl)-1H-1,2,3-triazole-4-carboxamide] | < 100 nM | < 100 nM
O=C(Cc1ccccn1)Nc1ccc(CCC(F)Cn2cc(C(=O)NCc3cc(C(F)(F)F)ccn3)nn2)nn1 (centres unmarked) [Example 211, 1-(2-fluoro-4-(6-(2-(pyridin-2-yl)acetamido)pyridazin-3-yl)butyl)-N-((4-(trifluoromethyl)pyridin-2-yl)methyl)-1H-1,2,3-triazole-4-carboxamide] | < 100 nM | < 100 nM
NC(=O)c1nnc(CCC(F)Cn2cc(C(=O)NCc3cccc(OC(F)(F)F)c3)nn2)s1 (centres unmarked) [Example 521, 5-{3-fluoro-4-[4-({[3-(trifluoromethoxy)phenyl]methyl}carbamoyl)-1H-1,2,3-triazol-1-yl]butyl}-1,3,4-thiadiazole-2-carboxamide] | 100 to 500 nM | 100 to 500 nM
O=C(NCc1ccc(C(F)(F)F)cn1)c1cn(CCC(F)Cn2cc(C(=O)NCc3cc(OC(F)(F)F)ccc3F)nn2)nn1 (centres unmarked) [Example 441, 1-{2-fluoro-4-[4-({[5-(trifluoromethyl)pyridin-2-yl]methyl}carbamoyl)-1H-1,2,3-triazol-1-yl]butyl}-N-{[2-fluoro-5-(trifluoromethoxy)phenyl]methyl}-1H-1,2,3-triazole-4-carboxamide] | < 100 nM | < 100 nM
O=C(NCc1cc(C2CC2)ccn1)c1cn(CCC(F)Cn2cc(C(=O)NCc3cncc(C(F)(F)F)c3)nn2)nn1 (centres unmarked) [Example 152, N-[(4-cyclopropylpyridin-2-yl)methyl]-1-{3-fluoro-4-[4-({[5-(trifluoromethyl)pyridin-3-yl]methyl}carbamoyl)-1H-1,2,3-triazol-1-yl]butyl}-1H-1,2,3-triazole-4-carboxamide] | < 100 nM | < 100 nM
O=C(Cc1cc(OC(F)(F)F)ccc1F)Nc1cn(CC(F)CCn2cc(C(=O)NCc3ncccc3F)nn2)nn1 (centres unmarked) [Example 378, 1-[3-fluoro-4-(4-{2-[2-fluoro-5-(trifluoromethoxy)phenyl]acetamido}-1H-1,2,3-triazol-1-yl)butyl]-N-[(3-fluoropyridin-2-yl)methyl]-1H-1,2,3-triazole-4-carboxamide] | < 100 nM | < 100 nM
O=C(NCc1cccc(N2CCCC2)c1)c1cn(CCCCn2cc(C(=O)NCc3cc(C(F)(F)F)ccn3)nn2)nn1 [Example 124, 1-{4-[4-({[3-(pyrrolidin-1-yl)phenyl]methyl}carbamoyl)-1H-1,2,3-triazol-1-yl]butyl}-N-{[4-(trifluoromethyl)pyridin-2-yl]methyl}-1H-1,2,3-triazole-4-carboxamide] | < 100 nM | < 100 nM
CNC(=O)c1cn(CCCCc2ccc(NC(=O)Cc3cccc(Br)c3)nn2)nn1 [Example 542, 1-(4-{6-[2-(3-bromophenyl)acetamido]pyridazin-3-yl}butyl)-N-methyl-1H-1,2,3-triazole-4-carboxamide] | < 100 nM | 100 to 500 nM
